T1: ATP synthase subunit e (ATP5I) (Homo sapiens, UniProt P56385)
T1 construct: gene ATP5ME; full-length human ATP5I, N-terminal 6x-His-tagged, expressed in E. coli (mainly oligomers, mostly decamers)
T1 sequence (P56385 1-69): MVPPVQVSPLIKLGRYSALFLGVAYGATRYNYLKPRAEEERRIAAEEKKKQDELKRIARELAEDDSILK

B1: N-terminal 6x-His-tagged ATP5I (ATP synthase subunit e), recombinant (natural protein, human, UniProt P56385 1-69, looked up)
chain: T1 sequence (P56385 1-69)
notes: The vector is pET-TEV; The protein was extracted under denaturing conditions and brought back into native buffer on the column; also called rATP5I; recombinant ATP5I; not shown: His6, N-terminal, kept

Key:
[1] = target: T1, ATP synthase subunit e (ATP5I); experiment: SPR, BFB immobilized on streptavidin chip, recombinant ATP5I as analyte, steady-state fit; supported by streptavidin pull-down and immunoblot; assay type: binding
[2] = target: the molecule itself; experiment: SEC; gel filtration of purified rATP5I (legend: Superose 12 10/300 GL for the profile, Superose 6 10/300 GL for the calibration with thyroglobulin, γ-globulin, myoglobin and vitamin B12)

| Molecule | Kd [1] [µM] | stoichiometry N [2] |
| --- | --- | --- |
| N=C(N)NC(=N)NCCCCCCNC(=O)CCCCC1SCC2NC(=O)NC21 (centres unmarked) [compound 3, BFB] | ~11.1 | – |
| B1 | – | 10 |

Source: article PMC13179060, “The role of ATP synthase subunit e (ATP5I) in mediating the metabolic and antiproliferative effects of metformin in cancer cells” (eLife, 2026)
